One data set relates to iNK cells. Kind of data set: Stage 3 expansion and maturation of immature iNK cells co-cultured with feeder cells. Format: cell-based, human. As to conditions: IL-18 (10-50 ng/mL) with IL-2 (100 IU/mL) in Stage 3 vs IL-2 only, Day 14 of co-culture (FIG. 13B). The protocol: (§1) hiPSCs were prepared as described in CN108373998B. On Day −1, Embryoid body (EB) formation (Stage 1-1) was carried out by placing individualized hiPSCs in E8 medium containing 10 μM Blebbistatin in T25 flasks on a bellydancer and culture overnight. On Day 0, lateral mesoderm differentiation (Stage 1-2) was initiated by changing the medium to a Stage 1-2 differentiation medium comprising IF-4 basal medium and supplemented with BMP4 (25 ng/mL), VEGF (15 ng/mL), bFGF (0.5 ng/mL) and CHIR99021 (4 μM) for 2 days. On Day 2, lateral mesoderm differentiation (Stage 1-3) continued for 1 day in a Stage 1-3 differentiation medium comprising IF-4 basal medium and supplemented with BMP4 (25 ng/mL), VEGF (15 ng/mL) and bFGF (0.5 ng/mL) and CHIR99021 (1 μM). On Day 3, HE specification (Stage 1-4) was initiated by adding a Stage 1-4 differentiation medium comprising IF-4 basal medium and supplemented with VEGF (15 ng/mL), bFGF (5 ng/mL), XAV939 (5 μM) for 1 day. […] On Day 14 of co-culture, iNK cells were collected and stained with CD56-PE antibody (BD, #555516), and the percentage of CD56+ cells was analyzed by flow cytometry.
hiPSCs were prepared as described in CN108373998B. […] D-1 and DO cells were analyzed by Microscopy. […] At the end of Stage 1-4, cells were analyzed by Microscopy and FACS. […] At the end of Stage 1-5, cells were analyzed by Microscopy and FACS. […]

A further data set concerns K562 cells. The data set can be described thus: Cytotoxicity of Stage 3 iNK cells towards K562 cells (CFSE/7AAD assay). Format: cell-based. The settings on record: added to Stage 3 medium (IL-10 20 ng/mL, IL-18 50 ng/mL); 4 hr co-culture, E:T 3:1 (FIG. 13A). The protocol:
as §1, with “ng/mL), VEGF (50 ng/mL) and” for “ng/mL), VEGF (15 ng/mL) and”, “On Day 11 of co-culture,” for “On Day 14 of co-culture,”, “(BD, #555516), the percentage” for “(BD, #555516), and the percentage”, “flow cytometry. The cytotoxicity of Stage 3 iNK cells towards K562 cells was detected by CFSE/7AAD assay after 4 hr co-culture at E:T of 3:1.” for “flow cytometry.”

Take “IL-18: interleukin added to Stage 3 expansion and maturation medium”: the “expansion fold of iNK cells” value in the data set with iNK cells is recorded as “improve the expansion fold”. Besides, the “cytotoxicity of iNK cells towards K562 cells” value in the data set with K562 cells is “significantly improve”.

Source of the values: patent publication US20240316196A1, “METHODS AND COMPOSITIONS FOR DIFFERENTIATION OF PLURIPOTENT STEM CELLS AND DERIVED NATURAL KILLER CELLS” (NUWACELL BIOTECHNOLOGIES CO., LTD., priority 2022, published 2024).
